Experimental data: PMC10806767 (JACS Au, 2023)
Ends that are not written are not given here.

T1: recombinant protein His-SND1 (16-339) (UniProt Q7KZF4 16-339)
T1 sequence (looked up): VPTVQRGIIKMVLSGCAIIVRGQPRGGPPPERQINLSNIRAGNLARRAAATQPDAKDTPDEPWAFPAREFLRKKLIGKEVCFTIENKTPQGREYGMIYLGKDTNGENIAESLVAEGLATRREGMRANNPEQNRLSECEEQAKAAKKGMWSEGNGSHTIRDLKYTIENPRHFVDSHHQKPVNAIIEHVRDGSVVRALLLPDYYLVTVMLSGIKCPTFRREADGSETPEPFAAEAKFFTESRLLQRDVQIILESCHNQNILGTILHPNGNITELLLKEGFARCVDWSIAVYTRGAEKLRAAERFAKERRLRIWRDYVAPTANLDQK

B1: MS2D-E (peptide, UniProt Q86UE4 393-407, looked up)
peptide: DWNEPAEEWGNWVDE
modifications: also: FITC label (position not given here)

Experiments:
breast cancer cells = test: Wound healing assay; format: cell-based; conditions: 36 h, compared with the control group
[1] = tested on: 4T1-luc mouse mammary tumor; test: In vivo antitumor efficacy and biosafety study, 4T1-luc tumor-bearing mice; conditions: 8 mg/kg, peritumoral injection every other day, 19 days
[2] = biological target: T1, recombinant protein His-SND1 (16-339); test: fluorescence polarisation

Molecule | tumor migration suppression (breast cancer cells) | tumor growth suppression (in words) [1] | Kd [2] [µM]
C[S+]1CC[C@@H](C(=O)N[C@@H](CCC(=O)O)C(=O)N[C@@H](Cc2c[nH]c3ccccc23)C(=O)O)NC(=O)[C@H](CCCNC(=N)N)NC(=O)[C@H](Cc2c[nH]cn2)NC(=O)[C@H](CCC(=O)O)NC(=O)[C@@H](NC(=O)[C@H](CCCNC(=N)N)NC(=O)[C@H](CCCNC(=N)N)NC(=O)OCC2c3ccccc3-c3ccccc32)CC[S+](C)Cc2cccc(c2)C1 (stereo partly drawn) [Wpc] | little effect | failed to suppress the tumor growth | –
B1 | – | – | ~0.034
